Data from article PMC8878317, “Chemogenomics identifies acetyl-coenzyme A synthetase as a target for malaria treatment and prevention” (Cell Chemical Biology, 2022).

System: P. falciparum 3D7 parasites
Experiment: Metabolomic profiling of compound-treated parasites (LC/MS);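 on Metabolite data: 3-Phosphoglycerate: Log2 fold change in abundance versus untreated parasite controls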;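 on Metabolite data: Myo-Inositol: Log2 fold change in abundance versus untreated parasite controls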;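 on Metabolite data: N-Carbamoyl-L-Aspartate: Log2 fold change in abundance versus untreated parasite controls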;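 on Metabolite data: Nicotinate: Log2 fold change in abundance versus untreated parasite controls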
Type: cell-based
Parameters: Metabolite data: dTMP / Metabolite data: GMP / Metabolite data: S-Adenosyl-L-Homocysteine / Metabolite data: 1_3-Bisphosphoglyceric acid: scale not given here
Method: The metabolite extraction protocol was performed as described elsewhere ([Allman et al., 2016]). Briefly, 1 mL of trophozoites that were magnetically purified to a concentration of 1×10^8 parasites/mL were placed into wells with 4 mL of RPMI 1640 media and allowed to recover for one hour. […] The culture was incubated for another 2.5 hr. The culture was centrifuged and quenched with 90% methanol containing 0.25 μM ^13C,^15N-Labeled-Aspartate, vortexed, and centrifuged. The supernatant was transferred to a new tube and dried for storage. Prior to analysis, the samples were resuspended to a final concentration of 1×10^8 parasites/mL in a solution of 3% methanol:water containing 1 μM chlorpropamide as an internal standard.
The chromatographic conditions used in this experiment were performed with slight modifications from previous methods ([Zhang et al., 2018]). Briefly, a Waters XSelect HSS C18 column was used on a gradient reverse-phase chromatographic configuration with 97:3 water:methanol with 10 mM tributylamine and 15 mM acetic acid (solvent A) and methanol (solvent B). A Thermo-Scientific Exactive Plus Orbitrap mass spectrometer was operated in negative mode for the detection of the metabolites. Peak picking and integration were performed using El-Maven LC/MS data processing software. The peak data were then exported to Excel where metabolite areas were normalized to the internal standards, blank subtracted, and averaged by condition.

Question: How did the “Metabolite data: 1_3-Bisphosphoglyceric acid” value turn out when `CCc1nc(N)nc(N)c1-c1ccc(Cl)cc1` [Pyrimethamine] was run?
Answer: 0

Question: And the “Metabolite data: 2_3-Diphosphoglyceric acid” value?
Answer: 0.1448

Question: And the “Metabolite data: 3-Phosphoglycerate” value?
Answer: 0.06527

Question: And the “Metabolite data: 4-Aminobutyrate” value?
Answer: 0.06366

Question: What about the “Metabolite data: 4-Phosphopantothenate” value of the same molecule?
Answer: 0.159

Question: And the “Metabolite data: 4-phosphopantetheine” value?
Answer: 0

Question: And the “Metabolite data: 5-aminopentanoic acid” value?
Answer: 0

Question: And the “Metabolite data: 5-phosphoribosyl-1-pyrophosphate” value?
Answer: 0

Question: What about the “Metabolite data: 6-Phospho-D-Gluconate” value of the same molecule?
Answer: 0.08879

Question: What about the “Metabolite data: ADP-D-Glucose” value of the same molecule?
Answer: 0.2656

Question: What about the “Metabolite data: Acetyl-CoA” value of the same molecule?
Answer: 0.1996

Question: And the “Metabolite data: Acetyllysine” value?
Answer: 0.2921

Question: What about the “Metabolite data: Aconitate” value of the same molecule?
Answer: 0.4355

Question: And the “Metabolite data: CDP” value?
Answer: 0.1713

Question: And the “Metabolite data: CDP-Ethanolamine” value?
Answer: 1.312

Question: And the “Metabolite data: CDP-choline” value?
Answer: 0

Question: What about the “Metabolite data: CMP” value of the same molecule?
Answer: 0.005842

Question: What about the “Metabolite data: CTP” value of the same molecule?
Answer: -0.1699

Question: And the “Metabolite data: Citrate/Isocitrate” value?
Answer: -0.2585

Question: And the “Metabolite data: Cyclic-AMP” value?
Answer: 0.06421

Question: And the “Metabolite data: Dihydroorotate” value?
Answer: 1.359

Question: And the “Metabolite data: FAD” value?
Answer: 0.05439

Question: And the “Metabolite data: FMN” value?
Answer: -0.4759

Question: And the “Metabolite data: Fructose-1,6-Bisphosphate” value?
Answer: 0.2831

Question: What about the “Metabolite data: Fumarate” value of the same molecule?
Answer: 0.3378

Question: And the “Metabolite data: GDP” value?
Answer: 0.005686

Question: And the “Metabolite data: GMP” value?
Answer: 0.1718

Question: And the “Metabolite data: GTP” value?
Answer: -0.6779

Question: What about the “Metabolite data: Glucose-1/6-Phosphate” value of the same molecule?
Answer: 0.1953

Question: And the “Metabolite data: Glutathione Disulfide” value?
Answer: 0.3348

Question: What about the “Metabolite data: Hexose” value of the same molecule?
Answer: 0

Question: And the “Metabolite data: Hydroxyisocaproic acid” value?
Answer: 0

Question: What about the “Metabolite data: Indole” value of the same molecule?
Answer: -0.02333

Question: What about the “Metabolite data: Ketoleucine” value of the same molecule?
Answer: 0

Question: And the “Metabolite data: L-arginino-succinate” value?
Answer: 0

Question: What about the “Metabolite data: Lactate” value of the same molecule?
Answer: 0.8185

Question: And the “Metabolite data: Malate” value?
Answer: 0.5597

Question: What about the “Metabolite data: Myo-Inositol” value of the same molecule?
Answer: 2.112

Question: And the “Metabolite data: N-Acetyl-Glutamate” value?
Answer: 0.1671

Question: What about the “Metabolite data: N-Acetyl-L-Alanine” value of the same molecule?
Answer: 0.1511

Question: And the “Metabolite data: N-Acetyl-L-Ornithine” value?
Answer: 0.1555

Question: And the “Metabolite data: N-Carbamoyl-L-Aspartate” value?
Answer: 0.3085

Question: And the “Metabolite data: NAD+” value?
Answer: 0.008224

Question: And the “Metabolite data: NADH” value?
Answer: 4.9

Question: And the “Metabolite data: NADP+” value?
Answer: 0.03009

Question: And the “Metabolite data: NADPH” value?
Answer: 1.808

Question: What about the “Metabolite data: Nicotinate” value of the same molecule?
Answer: 0.1972

Question: What about the “Metabolite data: Octulose 8/1-Phosphate” value of the same molecule?
Answer: -0.1128

Question: And the “Metabolite data: Orotate” value?
Answer: 0.09092

Question: And the “Metabolite data: PD” value?
Answer: 0.177

Question: And the “Metabolite data: PE” value?
Answer: -0.01685

Question: What about the “Metabolite data: PEEK” value of the same molecule?
Answer: 0

Question: And the “Metabolite data: Phenol Red” value?
Answer: 0

Question: And the “Metabolite data: Pyroglutamic acid” value?
Answer: 0.09576

Question: What about the “Metabolite data: S-Adenosyl-L-Homocysteine” value of the same molecule?
Answer: 0.08183

Question: And the “Metabolite data: S-methyl-5'-thioadenosine” value?
Answer: 0.0579

Question: And the “Metabolite data: SD” value?
Answer: 0.04153

Question: What about the “Metabolite data: Sedoheptulose Bisphosphate” value of the same molecule?
Answer: 0.1986

Question: What about the “Metabolite data: UDP” value of the same molecule?
Answer: 0.2702

Question: What about the “Metabolite data: UDP-D-Glucose” value of the same molecule?
Answer: 0.138

Question: And the “Metabolite data: UDP-D-Glucuronate” value?
Answer: 0.02668

Question: What about the “Metabolite data: UDP-N-Acetyl-Glucosamine” value of the same molecule?
Answer: 0.1474

Question: And the “Metabolite data: UMP” value?
Answer: 0.1095

Question: What about the “Metabolite data: UTP” value of the same molecule?
Answer: -0.3099

Question: What about the “Metabolite data: a-ketoglutarate” value of the same molecule?
Answer: 0.2017

Question: And the “Metabolite data: acetyl-aspartate” value?
Answer: 0

Question: What about the “Metabolite data: arginine” value of the same molecule?
Answer: 0

Question: And the “Metabolite data: asparagine” value?
Answer: 0

Question: What about the “Metabolite data: aspartate” value of the same molecule?
Answer: 0

Question: What about the “Metabolite data: biotin” value of the same molecule?
Answer: 0

Question: And the “Metabolite data: chlorpropamide” value?
Answer: 0

Question: And the “Metabolite data: coenzyme A” value?
Answer: 0

Question: What about the “Metabolite data: dAMP” value of the same molecule?
Answer: -0.3497

Question: What about the “Metabolite data: dATP” value of the same molecule?
Answer: 0.1703

Question: What about the “Metabolite data: dCDP” value of the same molecule?
Answer: 0.2805

Question: What about the “Metabolite data: dCMP” value of the same molecule?
Answer: 0.1423

Question: And the “Metabolite data: dCTP” value?
Answer: -0.258

Question: What about the “Metabolite data: dGDP/ADP” value of the same molecule?
Answer: 0.2431

Question: What about the “Metabolite data: dGMP/AMP” value of the same molecule?
Answer: -0.07108

Question: And the “Metabolite data: dGTP/ATP” value?
Answer: 0

Question: What about the “Metabolite data: dTDP” value of the same molecule?
Answer: 0.3943

Question: And the “Metabolite data: dTMP” value?
Answer: 0.05289

Question: And the “Metabolite data: dTTP” value?
Answer: -0.1782

Question: And the “Metabolite data: folate” value?
Answer: 0

Question: And the “Metabolite data: glucono-lactone” value?
Answer: 0

Question: What about the “Metabolite data: glutamate” value of the same molecule?
Answer: 0

Question: And the “Metabolite data: glutamine” value?
Answer: 0

Question: And the “Metabolite data: glutathione” value?
Answer: 0

Question: And the “Metabolite data: histidine” value?
Answer: 0

Question: And the “Metabolite data: hydroxyproline/Aminolevulinate” value?
Answer: 0

Question: And the “Metabolite data: isoleucine” value?
Answer: 0

Question: And the “Metabolite data: leucine” value?
Answer: 0

Question: What about the “Metabolite data: maleic acid” value of the same molecule?
Answer: 0

Question: What about the “Metabolite data: methionine” value of the same molecule?
Answer: 0

Question: What about the “Metabolite data: nicotinamide mononucleotide” value of the same molecule?
Answer: 0

Question: And the “Metabolite data: orotidine-5'-phosphate” value?
Answer: 0
